{"source": "patent US11813264B2", "about": "“PAR1 modulation to alter myelination” (Mayo Foundation for Medical Education and Research, priority 2014, dated 2023)", "format_in_all_cases": "cell-based, mouse", "key": {"primary oligodendrocytes": {"test_system": "primary oligodendrocytes", "test": "Klk6-induced process retraction in primary oligodendrocytes (O4+ processes per cell)", "experimental": "(§1) Oligodendrocyte Cultures: Purified cortical oligodendrocyte progenitor cells (OPCs) and differentiated oligodendrocytes were isolated from mixed glial cultures derived from postnatal day 1 mice (McCarthy and de Vellis, J Cell Blot 85:890-902, 1980). Glial cultures were grown in media containing DMEM, 2 mM Glutamax, 1 mM sodium pyruvate, 20 mM HEPES, and 10% heat-inactivated fetal calf serum (Atlanta Biologicals, Lawrenceville, GA). OPCs were isolated from 10 days-in-vitro (DIV) mixed glial cultures by overnight shaking and purified by differential adhesion. OPCs were seeded in defined Neurobasal A media containing 1% N2, 50 U/mL penicillin/streptomycin, 2 mM Glutamax, 1 mM sodium pyruvate, 0.45% glucose, and 50 μM β-mercaptoethanol (Sigma Aldrich, USA). OPCs were seeded at 3×10^4/cm^2 onto tissue culture plastic or 12 mm glass cover slips coated with poly-L-lysine (PLL, 10 μg/mL). After 24 h, cultures were 92-98% immunoreactive (IR) for sulfatide (O4) and by 72 hours at least 80% were also MBP-IR.\n(§2) PAR agonist-induced changes in oligodendrocyte morphology: To determine the effects of recombinant Klk6, Klk1, thrombin, or PAR1-AP on oligodendroglia, 3 DIV PAR1^+/+, PAR1^−/−, and PAR2^−/− oligodendrocytes, PAR1^+/+ OPCs immediately post purification, or Oli-neu cells were grown on cover slips in the presence of agonists for 24 h. For ATP toxicity assays, oligodendrocytes were incubated with ATP (50 μM, Sigma Aldrich) in the presence of Klk6 or Klk1. Following each treatment, oligodendrocyte and OPC cultures were immunolabeled for O4 to visualize the cell body and processes. Oli-neu processes were visualized by staining the actin cytoskeleton with Cy3-conjugated Phalloidin.\n(§3) To assess the effects of Klk6 and other PAR1 agonists on oligodendrocyte morphology and process stability, 20× digital micrographs were overlaid with a 780 μm^2 grid and ImageJ software 1.45r (National Institutes of Health) used to record cell number and the number of processes crossing horizontal grid lines (Scarisbrick et al., Brain 125:1283-1296, 2002). Data are expressed as the mean number of O4^+ or Phalloidin^+ processes per DAPI^+ cell (±SEM).\n(§4) Changes in OPC or oligodendrocyte morphology were quantified from five microscopic fields per cover slip with the mean and SEM calculated across three cover slips per experiment. Each experiment was repeated at least twice using independent cultures. Analysis of oligodendrocyte morphology was performed without knowledge of treatment groups."}, "[1]": {"test_system": "oligodendrocyte progenitor cells (OPCs)", "test": "OPC process outgrowth", "settings": "24 h", "experimental": "as §1, §2, §3, §4"}, "Erk1/2 phosphorylation": {"test_system": "Erk1/2 phosphorylation", "test": "Klk6-PAR signaling assay, Erk1/2 phosphorylation by Western blot in Oli-neu", "settings": "treatment alone; Klk6 10 minutes", "experimental": "Klk6-PAR signaling assays: To examine the ability of Klk6 to mediate PAR-dependent signaling in oligodendrocytes, Oli-neu oligodendroglia (3.5×10^5 cells/well in six-well plates) were treated with Klk6 (150 nM) for 10 min, followed by protein harvest. Cell lysates were analyzed for phosphorylated or nonphosphorylated Erk1/2 by Western blot. In experiments to determine the role of PARs in Klk6 signaling, Oli-neu were preincubated with the PAR1 antagonist, SCH79797 dihydrochloride (50 nM, Tocris Biosciences, Minneapolis, MN) for 30 minutes prior to Klk6 application.\nWestern blot: Oli-neu lysates were obtained using a buffer containing 1% NP40, 0.5% deoxycholate, 10% glycerol, and 20 mM Tris base and separated on SDS-polyacrylamide gels prior to transfer. Membranes were blocked with 5% milk in TBS-T and incubated overnight with primary antibodies including rabbit anti-phospho-Erk1/2 (1:1,000, Cell Signaling Technology, Danvers, MA), followed with a species-appropriate horseradish peroxidase-conjugated secondary antibody (1:20,000 GE Healthcare Unlimited, UK). Signal was detected using Chemiluminescence Supersignal Pico (Pierce, Rockford, IL). Western blots were repeated three times from independent cultures, scanned, and quantified by densitometry (BioRad Quantity One 1-D Analysis Software, BioRad, Hercules, CA). Erk1/2 signal was normalized to its nonphosphorylated form. Equal loading was verified by reprobing blots for […] (Novus Biologicals, Littleton, CO)."}, "[2]": {"test_system": "primary oligodendrocyte cultures (3 DIV)", "test": "ATP toxicity assay in oligodendrocytes", "experimental": "as §2, §3\nThe extent of oligodendrocyte morphological differentiation was determined by scoring O4^+/DAPI^+ oligodendrocyte morphology as simple (only primary processes, no secondary branching), incomplete (one or more primary process without secondary branching), complete (all primary processes with secondary branching), or membrane (complete secondary branching with membrane sheets) (Huang et al., Nat Neurosci 14:45-53, 2011). The mean number of cells in each morphology class was determined across treatments and expressed as percent of total O4^+/DAPI^+ cells.\nas §4"}, "[3]": {"settings": "co-application with ATP 50 μM, Klk6 150 nM"}}, "data": [{"substance": "Klk6: Recombinant murine kallikrein-related peptidase 6 expressed using a baculovirus system", "values": [{"measurement": "oligodendrocyte process retraction compared with controls", "setting": "primary oligodendrocytes; PAR1+/+ oligodendrocytes 3 DIV, 30 or 300 nM, 24 h", "value": "significant and statistically equivalent oligodendrocyte process retraction"}, {"measurement": "number of O4+ cells", "setting": "primary oligodendrocytes; PAR1+/+, PAR1-/- or PAR2-/- cells", "value": "No significant differences"}, {"measurement": "oligodendrocyte process retraction", "setting": "primary oligodendrocytes; PAR1-/- oligodendrocytes, 30 or 300 nM", "value": "did not exhibit statistically significant process retraction"}, {"measurement": "oligodendrocyte process retraction", "setting": "primary oligodendrocytes; PAR2-/- oligodendrocytes, 30 or 300 nM", "value": "process retraction comparable to that seen in PAR1^+/+ cultures"}, {"measurement": "fewer processes per cell compared with controls", "setting": "[1]; 150 nM", "value": "~60", "unit": "%"}, {"measurement": "number of OPCs", "setting": "[1]", "value": "significantly reduced"}, {"measurement": "OPC process extension / outgrowth", "setting": "[1]; Klk6 150 nM, thrombin 135 nM, Klk1 150 nM", "value": "significantly fewer processes than thrombin treated cultures"}, {"measurement": "Erk1/2 phosphorylation", "setting": "Erk1/2 phosphorylation", "value": "nearly four-fold increase"}, {"measurement": "ATP-induced oligodendrocyte loss", "setting": "[2]; co-application with ATP", "value": "significant exacerbation"}, {"measurement": "number of processes per oligodendrocyte", "setting": "[2]; co-application with ATP 50 μM", "value": "five-fold reduction"}, {"measurement": "oligodendrocytes with membrane morphology", "setting": "[2]; co-application with ATP 50 μM", "value": "complete loss"}, {"measurement": "oligodendroglia with mature complete morphology", "setting": "[2]; co-application with ATP 50 μM", "value": "complete loss"}, {"measurement": "increase in oligodendrocytes with incomplete morphologies compared with vehicle or ATP alone", "setting": "[2]; [3]", "value": "greater than 40%"}, {"measurement": "percentage of oligodendrocytes with simple morphology relative to ATP alone", "setting": "[2]; [3]", "value": "further increasing"}]}]}
